According to patent US11969428B2, “Methods and pharmaceutical compositions for treating lymphoid malignancy” (priority 2011, dated 2024):

What was measured:
Test in all cases: Ambit KinomeScan screening
Type in all cases: binding
Details in all cases: CAL-130 10 μM
AAK1 = biological target: T1, AAK1 (Homo sapiens, UniProt Q2M2I8)
T1 construct: unspecified tag ("tagged kinases"); purchased Ambit (KinomeScan screening)
Outline: (§1)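 Single-concentration profiling (10 μM CAL-130) measured displacement of tagged kinases from an immobilized bait ligand. Percent-of-control binding was reported; smaller values denote stronger interaction.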

ITK = biological target: T2, ITK (Homo sapiens, UniProt Q08881)
T2 construct: purchased Ambit (KinomeScan screening)
Outline: as §1

NEK6 = biological target: T3, NEK6 (Homo sapiens, UniProt Q9HC98)
T3 construct: unspecified tag; purchased Ambit (KinomeScan screening panel)
Outline: as §1

MAK = biological target: T4, MAK (Homo sapiens, UniProt P20794)
T4 construct: unspecified tag ('tagged kinases'); purchased Ambit (KinomeScan screening service)
Outline: as §1

FLT3(ITD) = system: FLT3(ITD)
Outline: as §1

MARK1 = biological target: T5, MARK1 (Homo sapiens, UniProt Q9P0L2)
T5 construct: Ambit (KinomeScan screening)
Outline: as §1

KIT(V559D, V654A) = biological target: T6, KIT(V559D, V654A) (Homo sapiens, UniProt P10721, V559D/V654A)
T6 construct: unspecified tag ('tagged kinases'); purchased Ambit (KinomeScan screening service)
Outline: as §1

EPHA8 = biological target: T7, EPHA8 (Homo sapiens, UniProt P29322)
T7 construct: purchased Ambit (KinomeScan screening service)
Outline: as §1

JAK2(JH1domain) = biological target: T8, JAK2(JH1domain) (Homo sapiens, UniProt O60674)
T8 construct: JAK2(JH1domain); purchased Ambit (KinomeScan screening)
Outline: as §1

YES = biological target: T9, YES (Homo sapiens, UniProt P07947)
T9 construct: purchased Ambit (KinomeScan screening service)
Outline: as §1

PRKCE = biological target: T10, PRKCE (Homo sapiens, UniProt Q02156)
T10 construct: purchased Ambit (KinomeScan screening service)
Outline: as §1

BMPR1B = biological target: T11, BMPR1B (Homo sapiens, UniProt O00238)
T11 construct: purchased Ambit (KinomeScan screening service)
Outline: as §1

RET(V804M) = biological target: T12, RET(V804M) (Homo sapiens, UniProt P07949, V804M)
T12 construct: tag (kind not specified); purchased Ambit (KinomeScan screening service)
Outline: as §1

PIM1 = biological target: T13, PIM1 (Homo sapiens, UniProt P11309)
T13 construct: unspecified tag; purchased Ambit (KinomeScan screening panel)
Outline: as §1

RIPK4 = biological target: T14, RIPK4 (Homo sapiens, UniProt P57078)
T14 construct: unspecified tag (tagged kinase); purchased Ambit (KinomeScan screening)
Outline: as §1

TRKC = biological target: T15, TRKC (Homo sapiens, UniProt Q16288)
T15 construct: tag, kind not specified; purchased Ambit (KinomeScan screening service)
Outline: as §1

SYK = biological target: T16, SYK (Homo sapiens, UniProt P43405)
T16 construct: tag (kind not specified); purchased Ambit (KinomeScan screening service)
Outline: as §1

BMPR2 = biological target: T17, BMPR2 (Homo sapiens, UniProt Q13873)
T17 construct: unspecified tag ("tagged kinases"); purchased Ambit (KinomeScan screening)
Outline: as §1

MEK6 = biological target: T18, MEK6 (Homo sapiens, UniProt P52564)
T18 construct: purchased Ambit (KinomeScan screening)
Outline: as §1

CAMK2G = biological target: T19, CAMK2G (Homo sapiens, UniProt Q13555)
T19 construct: purchased Ambit (KinomeScan screening)
Outline: as §1

INSRR = biological target: T20, INSRR (Homo sapiens, UniProt P14616)
T20 construct: Ambit (KinomeScan screening)
Outline: as §1

PLK1 = biological target: T21, PLK1 (Homo sapiens, UniProt P53350)
T21 construct: purchased Ambit (KinomeScan screening service)
Outline: as §1

GCN2(S808G) = biological target: T22, GCN2(S808G) (Homo sapiens, UniProt Q9P2K8, S808G)
T22 construct: unspecified tag ('tagged kinases'); purchased Ambit (KinomeScan screening service)
Outline: as §1

SNARK = biological target: T23, SNARK (Homo sapiens, UniProt Q9H093)
T23 construct: tag, kind not specified; purchased Ambit (KinomeScan screening service)
Outline: as §1

AKT3 = biological target: T24, AKT3 (Homo sapiens, UniProt Q9Y243)
T24 construct: purchased Ambit (KinomeScan screening)
Outline: as §1

PRKG2 = biological target: T25, PRKG2 (Homo sapiens, UniProt Q13237)
T25 construct: tag (kind not specified); purchased Ambit (KinomeScan screening service)
Outline: as §1

KIT(V559D) = biological target: T26, KIT(V559D) (Homo sapiens, UniProt P10721, V559D)
T26 construct: purchased Ambit (KinomeScan screening)
Outline: as §1

SRPK2 = biological target: T27, SRPK2 (Homo sapiens, UniProt P78362)
T27 construct: purchased Ambit (KinomeScan screening service)
Outline: as §1

DYRK2 = biological target: T28, DYRK2 (Homo sapiens, UniProt Q92630)
T28 construct: unspecified tag; purchased Ambit (KinomeScan screening service)
Outline: as §1

KIT(V559D, T670I) = biological target: T29, KIT(V559D, T670I) (Homo sapiens, UniProt P10721, T670I/V559D)
T29 construct: unspecified tag ('tagged kinases'); purchased Ambit (KinomeScan screening)
Outline: as §1

PAK4 = biological target: T30, PAK4 (Homo sapiens, UniProt O96013)
T30 construct: tag (kind not specified); purchased Ambit (KinomeScan screening service)
Outline: as §1

EGFR = biological target: T31, EGFR (Homo sapiens, UniProt P00533)
T31 construct: unspecified tag; purchased Ambit (KinomeScan screening service)
Outline: as §1

FLT3(D835H) = biological target: T32, FLT3(D835H) (Homo sapiens, UniProt P36888, D835H)
T32 construct: unspecified tag; purchased Ambit (KinomeScan screening service)
Outline: as §1

CDK5 = biological target: T33, CDK5 (Homo sapiens, UniProt Q00535)
T33 construct: purchased Ambit (KinomeScan screening)
Outline: as §1

LKB1 = biological target: T34, LKB1 (Homo sapiens, UniProt Q15831)
T34 construct: unspecified tag ('tagged kinases'); purchased Ambit (KinomeScan screening service)
Outline: as §1

CDK2 = biological target: T35, CDK2 (Homo sapiens, UniProt P24941)
T35 construct: purchased Ambit (KinomeScan screening)
Outline: as §1

Measured: Percent of Control Binding

T7 sequence (P29322 28-1005): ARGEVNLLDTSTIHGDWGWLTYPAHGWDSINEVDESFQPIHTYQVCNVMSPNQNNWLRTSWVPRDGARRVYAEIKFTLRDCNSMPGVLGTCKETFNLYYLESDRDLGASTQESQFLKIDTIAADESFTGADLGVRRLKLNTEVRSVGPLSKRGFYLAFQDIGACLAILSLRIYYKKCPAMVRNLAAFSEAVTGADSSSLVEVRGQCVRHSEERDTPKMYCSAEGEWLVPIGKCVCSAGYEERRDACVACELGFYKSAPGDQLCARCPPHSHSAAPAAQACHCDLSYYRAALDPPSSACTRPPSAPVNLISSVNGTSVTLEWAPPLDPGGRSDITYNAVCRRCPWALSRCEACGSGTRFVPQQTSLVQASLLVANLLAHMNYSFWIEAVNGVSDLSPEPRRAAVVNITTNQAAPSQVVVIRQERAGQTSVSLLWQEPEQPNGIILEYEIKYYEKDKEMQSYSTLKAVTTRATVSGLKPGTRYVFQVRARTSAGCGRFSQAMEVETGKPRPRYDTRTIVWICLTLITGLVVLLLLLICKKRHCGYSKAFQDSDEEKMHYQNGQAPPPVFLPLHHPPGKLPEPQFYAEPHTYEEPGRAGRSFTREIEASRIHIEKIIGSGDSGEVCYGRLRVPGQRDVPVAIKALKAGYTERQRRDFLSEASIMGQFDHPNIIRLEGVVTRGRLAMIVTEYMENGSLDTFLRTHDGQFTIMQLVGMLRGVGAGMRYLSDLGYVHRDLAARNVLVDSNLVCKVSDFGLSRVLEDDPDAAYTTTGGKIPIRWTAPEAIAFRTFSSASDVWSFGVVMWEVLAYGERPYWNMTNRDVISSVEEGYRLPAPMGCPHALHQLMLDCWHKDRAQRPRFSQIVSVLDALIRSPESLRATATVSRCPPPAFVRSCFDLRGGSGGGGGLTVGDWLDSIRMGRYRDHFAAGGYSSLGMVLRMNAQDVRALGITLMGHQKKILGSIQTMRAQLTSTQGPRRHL
T28 sequence (Q92630 whole entry): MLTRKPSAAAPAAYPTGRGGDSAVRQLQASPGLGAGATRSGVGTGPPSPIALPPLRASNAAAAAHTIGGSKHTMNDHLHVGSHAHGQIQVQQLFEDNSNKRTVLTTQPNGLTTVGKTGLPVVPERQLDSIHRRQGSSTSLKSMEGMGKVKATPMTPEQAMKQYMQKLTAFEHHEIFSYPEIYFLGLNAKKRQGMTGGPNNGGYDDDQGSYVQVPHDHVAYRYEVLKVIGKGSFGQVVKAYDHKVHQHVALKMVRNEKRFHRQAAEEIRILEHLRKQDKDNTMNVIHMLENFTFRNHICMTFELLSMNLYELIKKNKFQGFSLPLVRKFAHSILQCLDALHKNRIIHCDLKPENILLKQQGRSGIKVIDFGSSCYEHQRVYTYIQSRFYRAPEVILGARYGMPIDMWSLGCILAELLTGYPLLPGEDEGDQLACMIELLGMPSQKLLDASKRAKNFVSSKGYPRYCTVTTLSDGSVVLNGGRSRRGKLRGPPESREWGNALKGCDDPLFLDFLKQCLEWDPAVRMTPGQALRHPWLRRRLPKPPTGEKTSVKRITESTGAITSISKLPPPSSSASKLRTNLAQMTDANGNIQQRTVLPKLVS
T31 sequence (P00533 25-1210): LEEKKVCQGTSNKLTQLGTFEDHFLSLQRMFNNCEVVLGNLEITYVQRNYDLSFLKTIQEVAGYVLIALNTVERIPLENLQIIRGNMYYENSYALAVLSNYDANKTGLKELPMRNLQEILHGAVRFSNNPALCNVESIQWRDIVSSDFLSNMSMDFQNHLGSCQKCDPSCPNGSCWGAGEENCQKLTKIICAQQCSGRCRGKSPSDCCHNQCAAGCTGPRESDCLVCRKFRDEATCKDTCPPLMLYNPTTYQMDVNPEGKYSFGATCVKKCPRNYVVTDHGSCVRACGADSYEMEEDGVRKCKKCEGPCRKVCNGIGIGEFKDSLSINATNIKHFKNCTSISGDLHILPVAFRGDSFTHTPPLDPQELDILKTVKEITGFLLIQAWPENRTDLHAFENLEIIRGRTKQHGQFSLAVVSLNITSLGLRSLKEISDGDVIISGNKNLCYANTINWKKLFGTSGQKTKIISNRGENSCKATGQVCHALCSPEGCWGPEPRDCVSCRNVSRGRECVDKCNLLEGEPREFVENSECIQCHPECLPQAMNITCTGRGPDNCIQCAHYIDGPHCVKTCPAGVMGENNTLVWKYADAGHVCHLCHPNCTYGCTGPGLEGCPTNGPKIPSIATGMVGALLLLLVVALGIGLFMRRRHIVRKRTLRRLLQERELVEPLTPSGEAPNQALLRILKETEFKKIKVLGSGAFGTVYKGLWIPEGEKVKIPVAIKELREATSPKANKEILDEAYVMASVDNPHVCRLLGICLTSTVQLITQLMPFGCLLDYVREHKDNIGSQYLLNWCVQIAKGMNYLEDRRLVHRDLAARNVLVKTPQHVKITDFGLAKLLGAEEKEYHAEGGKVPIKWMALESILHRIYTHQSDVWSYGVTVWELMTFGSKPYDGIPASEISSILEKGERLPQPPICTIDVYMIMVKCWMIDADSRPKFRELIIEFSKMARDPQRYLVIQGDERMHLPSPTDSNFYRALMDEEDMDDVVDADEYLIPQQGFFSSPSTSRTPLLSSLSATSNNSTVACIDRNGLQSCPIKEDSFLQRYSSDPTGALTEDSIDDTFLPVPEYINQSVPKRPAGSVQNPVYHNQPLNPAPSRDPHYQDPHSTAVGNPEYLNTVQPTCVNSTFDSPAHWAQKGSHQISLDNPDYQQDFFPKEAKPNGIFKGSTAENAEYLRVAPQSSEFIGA
T11 sequence (O00238 14-502): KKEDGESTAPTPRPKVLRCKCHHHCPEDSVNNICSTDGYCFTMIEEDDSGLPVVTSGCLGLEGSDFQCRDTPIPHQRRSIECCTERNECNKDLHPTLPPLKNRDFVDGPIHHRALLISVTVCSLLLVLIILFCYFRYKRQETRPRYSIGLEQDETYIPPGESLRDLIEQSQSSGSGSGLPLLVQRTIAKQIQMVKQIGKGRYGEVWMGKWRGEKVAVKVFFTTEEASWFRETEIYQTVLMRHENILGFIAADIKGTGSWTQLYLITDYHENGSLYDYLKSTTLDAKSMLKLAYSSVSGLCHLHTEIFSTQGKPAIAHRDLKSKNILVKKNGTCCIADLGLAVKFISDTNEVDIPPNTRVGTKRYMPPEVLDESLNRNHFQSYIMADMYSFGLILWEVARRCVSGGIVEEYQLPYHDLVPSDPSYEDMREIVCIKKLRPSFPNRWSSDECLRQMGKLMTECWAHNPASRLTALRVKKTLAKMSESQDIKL
T34 sequence (Q15831 whole entry): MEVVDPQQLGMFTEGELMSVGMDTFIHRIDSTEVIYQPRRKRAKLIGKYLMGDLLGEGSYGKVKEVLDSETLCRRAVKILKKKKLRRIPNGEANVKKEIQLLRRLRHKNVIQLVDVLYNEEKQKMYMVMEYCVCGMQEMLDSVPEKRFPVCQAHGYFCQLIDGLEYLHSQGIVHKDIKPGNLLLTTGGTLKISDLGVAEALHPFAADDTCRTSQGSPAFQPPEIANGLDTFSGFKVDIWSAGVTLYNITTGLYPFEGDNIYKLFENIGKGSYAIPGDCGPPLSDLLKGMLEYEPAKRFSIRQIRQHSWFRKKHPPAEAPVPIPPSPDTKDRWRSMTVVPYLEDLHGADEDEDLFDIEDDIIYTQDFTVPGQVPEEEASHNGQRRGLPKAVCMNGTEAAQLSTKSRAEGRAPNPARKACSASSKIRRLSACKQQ
T17 sequence (Q13873 27-1038): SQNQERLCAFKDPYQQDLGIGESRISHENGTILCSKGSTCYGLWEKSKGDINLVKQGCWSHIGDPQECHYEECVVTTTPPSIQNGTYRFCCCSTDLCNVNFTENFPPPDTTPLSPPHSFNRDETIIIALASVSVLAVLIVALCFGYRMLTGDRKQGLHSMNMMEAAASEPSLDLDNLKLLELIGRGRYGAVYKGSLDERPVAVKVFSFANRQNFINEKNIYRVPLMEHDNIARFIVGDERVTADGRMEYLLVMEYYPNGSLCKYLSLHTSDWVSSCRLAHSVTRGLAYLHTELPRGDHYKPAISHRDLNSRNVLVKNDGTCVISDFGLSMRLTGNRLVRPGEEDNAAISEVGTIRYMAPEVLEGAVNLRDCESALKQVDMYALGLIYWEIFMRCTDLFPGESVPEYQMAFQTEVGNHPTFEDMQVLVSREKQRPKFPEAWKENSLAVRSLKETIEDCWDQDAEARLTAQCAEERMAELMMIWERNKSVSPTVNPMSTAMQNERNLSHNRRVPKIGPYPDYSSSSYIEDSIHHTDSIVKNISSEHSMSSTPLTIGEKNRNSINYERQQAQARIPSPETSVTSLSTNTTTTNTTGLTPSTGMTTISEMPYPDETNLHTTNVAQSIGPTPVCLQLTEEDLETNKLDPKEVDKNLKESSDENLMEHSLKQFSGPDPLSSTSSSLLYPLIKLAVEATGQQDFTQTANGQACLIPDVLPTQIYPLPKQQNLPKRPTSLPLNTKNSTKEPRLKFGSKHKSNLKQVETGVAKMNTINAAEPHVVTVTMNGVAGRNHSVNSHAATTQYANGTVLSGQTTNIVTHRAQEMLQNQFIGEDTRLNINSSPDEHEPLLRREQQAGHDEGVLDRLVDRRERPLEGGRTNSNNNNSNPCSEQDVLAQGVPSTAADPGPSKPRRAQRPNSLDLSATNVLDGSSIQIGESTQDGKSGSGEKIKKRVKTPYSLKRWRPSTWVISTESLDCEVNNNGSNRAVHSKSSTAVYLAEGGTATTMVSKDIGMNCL
T3 sequence (Q9HC98 whole entry): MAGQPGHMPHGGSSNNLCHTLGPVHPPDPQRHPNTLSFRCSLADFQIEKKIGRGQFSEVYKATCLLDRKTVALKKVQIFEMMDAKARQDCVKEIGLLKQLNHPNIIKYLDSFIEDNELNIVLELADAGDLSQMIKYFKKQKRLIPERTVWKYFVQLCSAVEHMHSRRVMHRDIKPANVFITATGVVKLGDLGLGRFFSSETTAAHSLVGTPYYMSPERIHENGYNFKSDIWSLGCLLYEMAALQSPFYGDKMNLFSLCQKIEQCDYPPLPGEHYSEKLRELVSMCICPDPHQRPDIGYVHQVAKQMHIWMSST

Cc1ccccc1-n1c(C(C)Nc2nc(N)nc3nc[nH]c23)nc2cccc(C)c2c1=O (stereo not drawn) [CAL-130]
100%: all assays above
